Key:
[1] = Oral absorption (general statements); assay type: in vivo; conditions: orally administered
[2] = cited from earlier work
[3] = cited from earlier work; remark: listed apart in the source
[4] = well known in the art; cited from earlier work

SMILES	absorption after oral administration [1]	dipivefrin converted into epinephrine ([2]; 0.5% solution instilled in human eyes, within 30 minutes) [%]	ocular penetration relative to epinephrine (times greater) ([2]; human eyes) [times]	amount entering the rabbit eye relative to epinephrine [3]	absorption when taken orally [4]
CNCC(O)c1ccc(OC(=O)C(C)(C)C)c(OC(=O)C(C)(C)C)c1 (centres unmarked) [Dipivefrin, 4-(1-hydroxy-2-(methylamino)ethyl)-1,2-phenylene bis(2,2-dimethylpropanoate)]	well absorbed	80	17	eight to ten times more	–
CNC[C@H](O)c1ccc(O)c(O)c1 [epinephrine]	–	–	–	–	not absorbed
